# Reference: PubChem BioAssay (NCI)
# “And” between values parts separate entries of the source, which are not always exact repeats. Equal values may be shown once.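 Where inhibition never reached the appropriate level, the endpoint shown equals the highest concentration tested. Otherwise, values were interpolated linearly from a five-concentration, 48-hour dose response in 96-well plates. GI50 = concentration required for 50% inhibition of growth. At the TGI there is no net growth.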
# How the values were obtained:
# Test in all cases: NCI-60 cell line screen, 48 h
# KM12 colon = tested on: KM12 colon
# SK-MEL-28 melanoma = tested on: SK-MEL-28 melanoma
# A549 NSCLC = tested on: A549 NSCLC
# OVCAR-3 ovarian = tested on: OVCAR-3 ovarian
# PC-3 prostate = tested on: PC-3 prostate
# BT-549 breast = tested on: BT-549 breast
# IGROV1 ovarian = tested on: IGROV1 ovarian
# SR leukemia = tested on: SR leukemia
# LOX IMVI melanoma = tested on: LOX IMVI melanoma
# HOP-62 NSCLC = tested on: HOP-62 NSCLC
SMILES,GI50 (KM12 colon),TGI (KM12 colon),GI50 (SK-MEL-28 melanoma),TGI (SK-MEL-28 melanoma),GI50 (A549 NSCLC),TGI (A549 NSCLC),GI50 (OVCAR-3 ovarian),TGI (OVCAR-3 ovarian),GI50 (PC-3 prostate),TGI (PC-3 prostate),GI50 (BT-549 breast),TGI (BT-549 breast),GI50 (IGROV1 ovarian),TGI (IGROV1 ovarian),GI50 (SR leukemia),TGI (SR leukemia),GI50 (LOX IMVI melanoma),TGI (LOX IMVI melanoma),GI50 (HOP-62 NSCLC),TGI (HOP-62 NSCLC)
O=C1c2cccc3cccc(c23)C(=O)N1CC#Cc1ccc2c3c(cccc13)C(=O)N(CCN1CCNCC1)C2=O,2.12 µM,4.6 µM,1.9 µM,3.55 µM,3.19 µM,12 µM,3.6 µM,12.4 µM,3.22 µM,11.6 µM,9.51 µM,34.4 µM,3.2 µM,13 µM,1.98 µM,4.78 µM,1.94 µM,3.87 µM,5.09 µM,30.1 µM
O=c1c(-c2ccc3c(c2)OCO3)coc2c(CO)c(O)ccc12,3.24 µM,13.3 µM,5.91 µM,22.7 µM,6.8 µM,30.9 µM,2.07 µM,4.26 µM,1.54 µM,4.03 µM,1.47 µM,3.41 µM,2.01 µM,4.93 µM,2.65 µM,> 100 µM,1.28 µM,3.41 µM,2.07 µM,5.01 µM
Oc1[nH]c2ccc(Cl)cc2c1/C=c1/ccc2c(c1)N=C(c1ccc(C(F)(F)F)cc1)N=2,2.08 µM,7.63 µM,2.35 µM,6.71 µM,3 µM,10.8 µM,1.56 µM,3.21 µM,2.29 µM,7.58 µM,1.87 µM,4.75 µM,3.35 µM,14.2 µM,2.43 µM,5.38 µM,1.77 µM,3.42 µM,2.28 µM,4.78 µM
CCc1ccc(Oc2nccc(-c3c(-c4ccc(F)cc4)ncn3C3CCNCC3)n2)cc1,6.01 µM,14.3 µM,4.73 µM,8.44 µM,5.18 µM,13.3 µM,10.5 µM,14.5 µM,5.33 µM,14.1 µM,5.55 µM,13.1 µM,4.71 µM,12.1 µM,7.25 µM,18.1 µM,4.78 µM,10.2 µM,4.13 µM,8.53 µM
Cc1cc(N2CCN(C)CC2)nc(N(CCNc2ccnc3cc(Cl)ccc23)Cc2ccco2)n1,3.48 µM,13.6 µM,1.71 µM,3.31 µM,4.1 µM,14.6 µM,2.62 µM,9.95 µM,3.7 µM,13.8 µM,2.94 µM,11.8 µM,2.91 µM,12.2 µM,2.09 µM,5.23 µM,1.77 µM,3.56 µM,2.63 µM,9.73 µM
Nc1ncnc2c1nc(N)n2C1OC(CO)C(O)C1O (configuration not stated),0.266 µM,0.867 µM,0.267 µM,1.33 µM,0.331 µM,2.02 µM,0.892 µM,4.75 µM,1.07 µM,8.21 µM,1.65 µM,3.36 µM,0.238 µM,0.863 µM,0.524 µM,4.38 µM,0.212 µM,1.17 µM,0.311 µM,2.71 µM
COc1cc(-c2ccc(Nc3ccccc3C(=O)O)c(OC)c2)ccc1Nc1ccccc1C(=O)O,–,> 70.9 µM,–,> 100 µM,–,> 100 µM,–,39.1 µM,–,> 67.4 µM,–,57.4 µM,–,> 100 µM,–,> 84.6 µM,–,30.9 µM,–,49.8 µM
CS(=O)/C(C#N)=C\C=C\c1cccc(Cl)c1 (configuration not stated),1.42 µM,4 µM,2.68 µM,9.78 µM,2.99 µM,16.8 µM,2.45 µM,10.1 µM,2.68 µM,12.8 µM,2 µM,11.9 µM,2.08 µM,10.3 µM,0.636 µM,> 100 µM,1.31 µM,2.73 µM,4.56 µM,16.2 µM
CCOC(=O)c1c(C(F)(F)F)n([O-])c2ccc(Cl)cc2[n+]1=O,2.07 µM,3.8 µM,1.89 µM,3.58 µM,4.14 µM,17.1 µM,2.11 µM,3.93 µM,1.45 µM,3.02 µM,2.02 µM,4.95 µM,1.85 µM,3.77 µM,1.55 µM,4.35 µM,1.57 µM,3.08 µM,1.88 µM,3.47 µM
N#Cc1ccc(N2Cc3cc(Cl)ccc3OC3=C2C(=O)N(Cc2ccc(F)cc2)C3=O)cc1,1.83 µM,6.59 µM,0.558 µM,1.13 µM,7.34 µM,23.2 µM,0.494 µM,0.96 µM,0.8 µM,2.5 µM,0.174 µM,0.356 µM,0.804 µM,2.14 µM,0.275 µM,1.12 µM,0.453 µM,0.908 µM,2.72 µM,10.1 µM
O=C1c2ccccc2C(=O)c2c(NCCNCCO)ccc(NCCNCCO)c21,2.4 µM and 2.47 µM and 3.52 µM,9.12 µM and 21.1 µM and 20.3 µM,1.46 µM and 1.61 µM and 1.7 µM,3.14 µM and 3.87 µM and 5.01 µM,0.195 µM and 0.183 µM and 0.123 µM,6.92 µM and 9.37 µM and 6.34 µM,2.41 µM and 2.86 µM and 2.72 µM,7.71 µM and 11.5 µM and 11 µM,2.27 µM and 2.34 µM and 1.67 µM,17.8 µM and 13.4 µM and 7.54 µM,2.98 µM and 7.28 µM and 6.25 µM,14.9 µM and 20.7 µM and 21.7 µM,1.14 µM and 0.55 µM and 0.811 µM,10.3 µM and 9.84 µM,1.49 µM and 0.492 µM and 0.267 µM,13.2 µM and 36.8 µM,0.426 µM and 0.941 µM and 0.545 µM,4.19 µM and 6.13 µM and 6.12 µM,0.422 µM and 0.473 µM and 0.509 µM,4.19 µM and 3.82 µM and 4.76 µM
CC(=O)NC1CCCN(O)C(=O)/C=C(/C)CCOC(=O)C(NC(C)=O)CCCN(O)C(=O)/C=C(/C)CCOC(=O)C(NC(C)=O)CCCN(O)C(=O)/C=C(/C)CCOC1=O.[Fe] (configuration not stated),> 100 µM,> 100 µM,> 100 µM,> 100 µM,> 100 µM,> 100 µM,> 100 µM,> 100 µM,> 100 µM,> 100 µM,> 100 µM,> 100 µM,> 100 µM,> 100 µM,> 100 µM,> 100 µM,> 100 µM,> 100 µM,> 100 µM,> 100 µM
O=S(=O)(CC(O)C(Cl)(Cl)Cl)NNc1ccccc1 (configuration not stated),–,> 100 µM,–,> 100 µM,–,> 100 µM,–,> 100 µM,–,> 100 µM,–,> 100 µM,–,> 100 µM,–,> 100 µM,–,> 100 µM,–,> 100 µM
O=C1/C(=C\c2ccc([N+](=O)[O-])cc2)CS(=O)(=O)C/C1=C/c1ccc([N+](=O)[O-])cc1,0.25 µM,1.46 µM,0.188 µM,0.444 µM and 3.59 µM,0.35 µM,10.8 µM,0.0761 µM,0.329 µM and 0.754 µM,0.194 µM,0.713 µM and 1.51 µM,–,0.845 µM and 1.12 µM,0.275 µM,0.841 µM and 2.22 µM,0.908 µM,–,0.0309 µM,–,0.284 µM,3.94 µM
O=c1[nH]cc(CO)c(=O)[nH]1,> 100 µM,> 100 µM,> 100 µM,> 100 µM,> 100 µM,> 100 µM,> 100 µM,> 100 µM,> 100 µM,> 100 µM,> 100 µM,> 100 µM,> 100 µM,> 100 µM,> 100 µM,> 100 µM,> 100 µM,> 100 µM,> 100 µM,> 100 µM
CCCCCCCCCCCCNC(=O)[C@H]1CSC(c2cc(Br)cs2)N1 (some centres not stated),1.05 µM,2.37 µM,0.759 µM,1.49 µM,6.99 µM,14.1 µM,1.15 µM,2.38 µM,0.981 µM,2.25 µM,0.894 µM,1.78 µM,1 µM,2.19 µM,0.967 µM,2.27 µM,0.797 µM,1.56 µM,0.822 µM,1.56 µM
[CH3][Sn]([CH3])([CH3])[O]C(=O)C(O)c1ccccc1 (configuration not stated),8.78 µM,> 100 µM,8.55 µM,> 100 µM,4.72 µM,49.1 µM,5.38 µM,66.2 µM,2.4 µM,> 100 µM,17.9 µM,> 100 µM,8.47 µM,> 87.3 µM,20.7 µM,> 100 µM,2.85 µM,8.53 µM,2.12 µM,4.4 µM
O=Cc1c[nH]c2ccc(-c3csc4ccccc34)cc12,3.39 µM,> 100 µM,5.49 µM,> 100 µM,4.29 µM,> 100 µM,2.01 µM,5.03 µM,3.02 µM,> 100 µM,2.5 µM,8.75 µM,3.81 µM,59.9 µM,1.12 µM,10.9 µM,3.87 µM,> 100 µM,3.06 µM,39.9 µM
COc1ccc(-c2nnc(Nc3nc(O)c(C4=c5cc(OC(F)(F)F)ccc5=NC4=O)s3)o2)cc1,3.75 µM,19.6 µM,17.8 µM,> 100 µM,17.2 µM,81.4 µM,5.75 µM,90.8 µM,19.9 µM,57.5 µM,19.7 µM,37.7 µM,22 µM,60.7 µM,9 µM,34.2 µM,16.3 µM,56.1 µM,15.7 µM,30.3 µM
CC(=O)Nc1c(I)c(C(=O)O)c(I)c(N(C)C(C)=O)c1I,> 100 µM,> 100 µM,> 100 µM,> 100 µM,> 100 µM,> 100 µM,> 100 µM,> 100 µM,> 100 µM,> 100 µM,> 100 µM,> 100 µM,> 100 µM,> 100 µM,> 100 µM,> 100 µM,> 100 µM,> 100 µM,> 100 µM,> 100 µM
Cc1cc(NS(=O)(=O)c2ccc(NC(=O)COc3ccc(-c4cc5ccccc5[nH]4)cc3)cc2)no1,1.51 µM,3.24 µM,1.55 µM,3.17 µM,2.18 µM,6.39 µM,1.72 µM,3.75 µM,1.94 µM,6.91 µM,2.12 µM,5.97 µM,2.02 µM,4.41 µM,1.67 µM,> 100 µM,1.86 µM,5.18 µM,2.95 µM,7.74 µM
Cc1ccc2nc3sc(=O)sc3nc2c1,–,28.9 µM,–,48.9 µM,–,29.6 µM,–,27.7 µM,–,27.3 µM,–,28.7 µM,–,31.7 µM,–,80.2 µM,–,28.2 µM,–,30.6 µM
O=C1c2ccccc2-c2c1c1c(O)cccc1n2CCCc1ccccc1,4.54 µM,> 100 µM,> 100 µM,> 100 µM,9.61 µM,> 100 µM,9.82 µM,> 100 µM,16.2 µM,> 100 µM,16 µM,63.6 µM,17.1 µM,> 100 µM,4.05 µM,> 100 µM,43.9 µM,> 100 µM,43 µM,> 100 µM
COc1cccc(C(C#N)NC23CC4CC(CC(C4)C2)C3)c1 (configuration not stated),–,> 100 µM,–,> 100 µM,–,> 100 µM,–,> 100 µM,–,> 100 µM,–,> 100 µM,–,> 100 µM,–,> 100 µM,–,> 100 µM,–,> 100 µM
COc1ccc(Oc2nc(Nc3ccc(N4CCOCC4)cc3)ncc2NC(=O)Nc2cc(OC)cc(OC)c2)cc1,1.82 µM,15.3 µM,2.5 µM,9.73 µM,1.86 µM,12.5 µM,1.41 µM,5.46 µM,2.39 µM,14.2 µM,1.59 µM,7.98 µM,4.45 µM,13.9 µM,6.76 µM,> 33.3 µM,3.59 µM,12.6 µM,5.48 µM,22.2 µM
C=C1C(=O)O[C@H]2[C@H]1CC/C(COC(=O)c1cccc3ccccc13)=C\CC[C@@]1(C)O[C@@H]21,2.07 µM,4.99 µM,1.82 µM,3.64 µM,2.12 µM,5.4 µM,1.39 µM,2.76 µM,1.57 µM,3.14 µM,1.05 µM,2.37 µM,1.03 µM,2.79 µM,0.363 µM,> 100 µM,1.35 µM,2.8 µM,1.76 µM,3.68 µM
